This is an account of results in patent US12577231B2, “Androgen receptor PROTACS” (GlaxoSmithKline Intellectual Property Development Limited, priority 2023, dated 2026).

The structures appear in SMILES notation.

The assay has as its target T1, Androgen Receptor dual T878A/L702H mutant protein (Homo sapiens, UniProt P10275, L702H/T878A).
T1 construct: host or cells: MDA-PCa-2b
T1 sequence (P10275 1-920 L702H/T878A): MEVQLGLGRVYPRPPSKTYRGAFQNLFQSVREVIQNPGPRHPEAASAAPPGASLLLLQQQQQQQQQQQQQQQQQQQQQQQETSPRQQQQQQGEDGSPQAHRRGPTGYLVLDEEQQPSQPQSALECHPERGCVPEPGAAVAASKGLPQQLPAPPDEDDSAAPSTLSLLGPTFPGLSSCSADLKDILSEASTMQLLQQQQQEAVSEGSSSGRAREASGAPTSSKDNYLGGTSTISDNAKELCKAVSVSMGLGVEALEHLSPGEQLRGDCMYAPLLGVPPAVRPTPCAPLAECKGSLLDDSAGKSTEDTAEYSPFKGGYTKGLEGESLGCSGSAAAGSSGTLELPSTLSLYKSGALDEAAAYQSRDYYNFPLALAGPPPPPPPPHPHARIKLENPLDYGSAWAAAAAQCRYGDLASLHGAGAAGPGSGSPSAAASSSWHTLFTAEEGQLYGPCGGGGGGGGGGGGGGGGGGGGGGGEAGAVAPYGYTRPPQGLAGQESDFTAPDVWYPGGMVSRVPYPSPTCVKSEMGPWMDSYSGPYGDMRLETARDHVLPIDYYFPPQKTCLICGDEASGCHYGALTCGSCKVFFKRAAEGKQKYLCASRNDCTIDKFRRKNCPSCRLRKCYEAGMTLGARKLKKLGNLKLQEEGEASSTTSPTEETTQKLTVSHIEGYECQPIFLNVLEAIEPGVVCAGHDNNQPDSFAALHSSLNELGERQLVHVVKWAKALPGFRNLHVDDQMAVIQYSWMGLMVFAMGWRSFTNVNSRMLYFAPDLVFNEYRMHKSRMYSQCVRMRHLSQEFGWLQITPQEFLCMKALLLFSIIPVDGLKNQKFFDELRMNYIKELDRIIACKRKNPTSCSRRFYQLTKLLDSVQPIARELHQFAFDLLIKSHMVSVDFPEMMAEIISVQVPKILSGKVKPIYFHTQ
Nature of the assay: Dual Mutant (T878A/L702H) Androgen Receptor Degradation Assay (HTRF, MDA-PCa-2b cells). Type of assay: cell-based. The conditions noted are these: 18 h, 18 h incubation, read-out: mean asymptote max. The gist of the method:
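PROTACs tested as 11-point, 3-fold dilutions on 10,000 cells for 18 h at 37 °C. Remaining AR read by HTRF (665/620 nm ratio) after lysis, normalised to DMSO-treated cells (0%) and cell-free medium (100%). Relative DC50 from 4-parameter fit inflection, absolute DC50 interpolated at 50% degradation; Dmax is maximum observed degradation.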
A general note: TR-FRET usually uses a lanthanide donor and a delayed reading to cut background.
As to `COc1cc(O[C@H]2C(C)(C)[C@H](NC(=O)c3ccc(N4CCC(CN5CC[C@@H](n6ncc7c(N8CCC(=O)NC8=O)cccc76)[C@@H](F)C5)CC4)c(F)c3)C2(C)C)ccc1C#N` [Example 27, N-((1r,3r)-3-(4-Cyano-3-methoxyphenoxy)-2,2,4,4-tetramethylcyclobutyl)-4-(4-(((3,4R)-4-(4-(2,4-dioxotetrahydropyrimidin-1(2H)-yl)-1H-indazol-1-yl)-3-fluoropiperidin-1-yl)methyl)piperidin-1-yl)-3-fluorobenzamide], the Dmax was no less than 50%. To `CC1(C)[C@H](NC(=O)c2ccc(N3CCC(CN4CCC(n5ncc6c(N7CCC(=O)NC7=O)nccc65)CC4)CC3)c(F)c2)C(C)(C)[C@H]1Oc1ccc(C#N)c2ncccc12` [Example 39, N-((1r,3r)-3-((8-Cyanoquinolin-5-yl)oxy)-2,2,4,4-tetramethylcyclobutyl)-4-(4-((4-(4-(2,4-dioxotetrahydropyrimidin-1(2H)-yl)-1H-pyrazolo[4,3-c]pyridin-1-yl)piperidin-1-yl)methyl)piperidin-1-yl)-3-fluorobenzamide] belongs no less than 50%; to `CC1(C)[C@H](NC(=O)c2ccc(N3CCC(CN4CCC(n5ccc6c(N7CCC(=O)NC7=O)cc(F)cc65)CC4)CC3)c(F)c2)C(C)(C)[C@H]1Oc1ccc(C#N)c2ncccc12` [Example 32, N-((1r,3r)-3-((8-Cyanoquinolin-5-yl)oxy)-2,2,4,4-tetramethylcyclobutyl)-4-(4-((4-(4-(2,4-dioxotetrahydropyrimidin-1(2H)-yl)-6-fluoro-1H-indol-1-yl)piperidin-1-yl)methyl)piperidin-1-yl)-3-fluorobenzamide], no less than 50%.
